Data from patent US20240279236A1, “COMPOUNDS AND METHODS OF TREATING TUBERCULOSIS” (Fimbrion Therapeutics, Inc., priority 2021, published 2024).
pIC50: −log10 of the molar value.

Each compound was assayed on WT Mtb Erdman strain (assay: Microplate Alamar Blue Assay (MABA), Mtb growth inhibition). Conditions: Mycobacterium tuberculosis, ERDMAN, 168 h, Middlebrook 7H9 media, 7 days at 37° C. in 5% CO2.
Assay type: cell-based, Mycobacterium tuberculosis
`Cc1cc2c(NCCCc3ccc(-c4ccc(C5CC5)cc4)cc3)nc(-c3ccoc3)nc2s1` [Example 429, N-(3-(4′-cyclopropyl-[1,1′-biphenyl]-4-yl)propyl)-2-(furan-3-yl)-6-methylthieno[2,3-d]pyrimidin-4-amine] showed a pIC50 of 7.70. Compound `CSc1nc(NCCCc2ccc(-c3ccc(C4CC4)cc3)cc2)c2cc(C)sc2n1` [Example 430, N-(3-(4′-cyclopropyl-[1,1′-biphenyl]-4-yl)propyl)-6-methyl-2-(methylthio)thieno[2,3-d]pyrimidin-4-amine] has a pIC50 of 7.74. For `CSc1nc(NCCCc2ccc(-c3ccc(C(F)(F)F)nc3)cc2)c2cc(C)sc2n1` [Example 431, 6-methyl-2-(methylthio)-N-(3-(4-(6-(trifluoromethyl)pyridin-3-yl)phenyl)propyl)thieno[2,3-d]pyrimidin-4-amine], the pIC50 was 7.70. In the case of `CSc1nc(NCCCc2ccc(-c3ccc(C#N)cc3)cc2)c2cc(C)sc2n1` [Example 432, 4′-(3-((6-methyl-2-(methylthio)thieno[2,3-d]pyrimidin-4-yl)amino)propyl)-[1,1′-biphenyl]-4-carbonitrile], the pIC50 was 7.85. `Cc1cc2c(NCCCc3ccc(-c4ccc(OC(F)(F)F)cc4)cc3)nc(Cl)nc2s1` [Example 433, 2-chloro-6-methyl-N-(3-(4′-(trifluoromethoxy)-[1,1′-biphenyl]-4-yl)propyl)thieno[2,3-d]pyrimidin-4-amine] showed a pIC50 of 7.27. `Cc1cc2c(NCCCc3ccc(-c4ccc(Cl)cc4)cc3)nc(-c3ccoc3)nc2s1` [Example 434, N-(3-(4′-chloro-[1,1′-biphenyl]-4-yl)propyl)-2-(furan-3-yl)-6-methylthieno[2,3-d]pyrimidin-4-amine] gave a pIC50 of 8.00. `Cc1cc2c(NCCCc3ccc(-c4ccc(Cl)cc4)cc3)nc(Cl)nc2s1` [Example 435, 2-chloro-N-(3-(4′-chloro-[1,1′-biphenyl]-4-yl)propyl)-6-methylthieno[2,3-d]pyrimidin-4-amine] gave a pIC50 of 7.52. In the case of `Cc1cc2c(NCCCc3ccc(-c4ccc(Cl)cc4)cc3)nc(-c3ccc(F)cc3)nc2s1` [Example 436, N-(3-(4′-chloro-[1,1′-biphenyl]-4-yl)propyl)-2-(4-fluorophenyl)-6-methylthieno[2,3-d]pyrimidin-4-amine], the pIC50 was 6.66. With `Cc1cc2c(NCCCc3ccc(-c4ccc(C5CC5)cc4)cc3)nc(Cl)nc2s1` [Example 437, 2-chloro-N-(3-(4′-cyclopropyl-[1,1′-biphenyl]-4-yl)propyl)-6-methylthieno[2,3-d]pyrimidin-4-amine] the pIC50 was 7.07. Work on `Cc1cc2c(NCCCc3ccc(-c4ccc(C(F)(F)F)nc4)cc3)nc(Cl)nc2s1` [Example 438, 2-chloro-6-methyl-N-(3-(4-(6-(trifluoromethyl)pyridin-3-yl)phenyl)propyl)thieno[2,3-d]pyrimidin-4-amine] yielded a pIC50 of 6.85. `Cc1cc2c(NCCCc3ccc(-c4ccc(C#N)cc4)cc3)nc(Cl)nc2s1` [Example 439, 4′-(3-((2-chloro-6-methylthieno[2,3-d]pyrimidin-4-yl)amino)propyl)-[1,1′-biphenyl]-4-carbonitrile] was tested, and the pIC50 was 7.03. With `Cc1cc2c(NCCCc3ccc(-c4ccc(OC(F)(F)F)cc4)cc3)nc(-c3cccn3C)nc2s1` [Example 440, 6-methyl-2-(1-methyl-1H-pyrrol-2-yl)-N-(3-(4′-(trifluoromethoxy)-[1,1′-biphenyl]-4-yl)propyl)thieno[2,3-d]pyrimidin-4-amine] the pIC50 was 5.09. In the case of `Cc1cc2c(NCCCc3ccc(-c4ccc(OC(F)(F)F)cc4)cc3)nc(-c3ccn(C)c3)nc2s1` [Example 441, 6-methyl-2-(1-methyl-1H-pyrrol-3-yl)-N-(3-(4′-(trifluoromethoxy)-[1,1′-biphenyl]-4-yl)propyl)thieno[2,3-d]pyrimidin-4-amine], the pIC50 was 7.31. `Cc1cc2c(NCCCc3ccc(-c4ccc(OC(F)(F)F)cc4)cc3)nc(-c3cnc[nH]3)nc2s1` [Example 442, 2-(1H-imidazol-5-yl)-6-methyl-N-(3-(4′-(trifluoromethoxy)-[1,1′-biphenyl]-4-yl)propyl)thieno[2,3-d]pyrimidin-4-amine] showed a pIC50 of 6.64. In the case of `Cc1cc2c(NCCCc3ccc(-c4ccc(OC(F)(F)F)cc4)cc3)nc(-c3cn(C)cn3)nc2s1` [Example 443, 6-methyl-2-(1-methyl-1H-imidazol-4-yl)-N-(3-(4′-(trifluoromethoxy)-[1,1′-biphenyl]-4-yl)propyl)thieno[2,3-d]pyrimidin-4-amine], the pIC50 was 6.52. Work on `Cc1cc2c(NCCCc3ccc(-c4ccc(OC(F)(F)F)cc4)cc3)nc(-c3cncn3C)nc2s1` [Example 444, 6-methyl-2-(1-methyl-1H-imidazol-5-yl)-N-(3-(4′-(trifluoromethoxy)-[1,1′-biphenyl]-4-yl)propyl)thieno[2,3-d]pyrimidin-4-amine] yielded a pIC50 of 5.26. `Cc1nc(NCCCc2ccc(-c3ccc(OC(F)(F)F)cc3)cc2)c2cc(C)sc2n1` [Example 445, 2,6-dimethyl-N-(3-(4′-(trifluoromethoxy)-[1,1′-biphenyl]-4-yl)propyl)thieno[2,3-d]pyrimidin-4-amine] showed a pIC50 of 6.80. Work on `Cc1cc2c(NCCCc3ccc(-c4ccc(OC(F)(F)F)cc4)cc3)nc(-c3ncon3)nc2s1` [Example 446, 6-methyl-2-(1,2,4-oxadiazol-3-yl)-N-(3-(4′-(trifluoromethoxy)-[1,1′-biphenyl]-4-yl)propyl)thieno[2,3-d]pyrimidin-4-amine] yielded a pIC50 of 7.02. Work on `Cc1cc2c(NCCCc3ccc(-c4ccc(OC(F)(F)F)cc4)cc3)nc(-c3cnn(C)c3)nc2s1` [Example 447, 6-methyl-2-(1-methyl-1H-pyrazol-4-yl)-N-(3-(4′-(trifluoromethoxy)-[1,1′-biphenyl]-4-yl)propyl)thieno[2,3-d]pyrimidin-4-amine] yielded a pIC50 of 7.24. `CCSc1nc(NCCCc2ccc(-c3ccc(OC(F)(F)F)cc3)cc2)c2cc(C)sc2n1` [Example 448, 2-(ethylthio)-6-methyl-N-(3-(4′-(trifluoromethoxy)-[1,1′-biphenyl]-4-yl)propyl)thieno[2,3-d]pyrimidin-4-amine] gave a pIC50 of 7.36. With `Cc1cc2c(NCCCc3ccc(-c4ccc(OC(F)(F)F)cc4)cc3)nc(-c3c(C)noc3C)nc2s1` [Example 449, 2-(3,5-dimethylisoxazol-4-yl)-6-methyl-N-(3-(4′-(trifluoromethoxy)-[1,1′-biphenyl]-4-yl)propyl)thieno[2,3-d]pyrimidin-4-amine] the pIC50 was less than 6.00. `Cc1cc2c(NCCCc3ccc(-c4ccc(OC(F)(F)F)cc4)cc3)nc(-c3ccn(C)n3)nc2s1` [Example 450, 6-methyl-2-(1-methyl-1H-pyrazol-3-yl)-N-(3-(4′-(trifluoromethoxy)-[1,1′-biphenyl]-4-yl)propyl)thieno[2,3-d]pyrimidin-4-amine] gave a pIC50 of 6.31. `Cc1cc2c(NCCCc3ccc(-c4ccc(OC(F)(F)F)cc4)cc3)nc(-n3ccnc3)nc2s1` [Example 451, 2-(1H-imidazol-1-yl)-6-methyl-N-(3-(4′-(trifluoromethoxy)-[1,1′-biphenyl]-4-yl)propyl)thieno[2,3-d]pyrimidin-4-amine] gave a pIC50 of 5.74. `Cc1cc2c(NCCCc3ccc(-c4ccc(OC(F)(F)F)cc4)cc3)nc(C3CC3)nc2s1` [Example 452] was tested, and the pIC50 was 7.12. With `Cc1cc2c(NCCCc3ccc(-c4ccc(OC(F)(F)F)cc4)cc3)nc(C3CCC3)nc2s1` [Example 453, 2-cyclobutyl-6-methyl-N-(3-(4′-(trifluoromethoxy)-[1,1′-biphenyl]-4-yl)propyl)thieno[2,3-d]pyrimidin-4-amine] the pIC50 was 7.24. For `Cc1cc2c(NCCCc3ccc(-c4ccc(OC(F)(F)F)cc4)cc3)nc(-c3cn[nH]c3)nc2s1` [Example 454, 6-methyl-2-(1H-pyrazol-4-yl)-N-(3-(4′-(trifluoromethoxy)-[1,1′-biphenyl]-4-yl)propyl)thieno[2,3-d]pyrimidin-4-amine], the pIC50 was less than 6.00. `Cc1cc2c(NCCCc3ccc(-c4ccc(OC(F)(F)F)cc4)cc3)nc(C(C)C)nc2s1` [Example 455, 2-isopropyl-6-methyl-N-(3-(4′-(trifluoromethoxy)-[1,1′-biphenyl]-4-yl)propyl)thieno[2,3-d]pyrimidin-4-amine] was tested, and the pIC50 was 7.25. Compound `Cc1cc2c(NCCCc3ccc(-c4ccc(OC(F)(F)F)cc4)cc3)nc(-c3ccoc3C)nc2s1` [Example 456, 6-methyl-2-(2-methylfuran-3-yl)-N-(3-(4′-(trifluoromethoxy)-[1,1′-biphenyl]-4-yl)propyl)thieno[2,3-d]pyrimidin-4-amine] has a pIC50 of less than 5.00. `Cc1nc2c(NCCCc3ccc(-c4cnc(F)cn4)cc3)nc(-c3ncon3)nc2s1` [Example 457, N-(3-(4-(5-fluoropyrazin-2-yl)phenyl)propyl)-2-methyl-5-(1,2,4-oxadiazol-3-yl)thiazolo[5,4-d]pyrimidin-7-amine] showed a pIC50 of less than 6.00. Compound `CSc1nc(NCCCc2ccc(-c3ccc(C(F)(F)F)cn3)cc2)c2cc(C)sc2n1` [Example 458, 6-methyl-2-(methylthio)-N-(3-(4-(5-(trifluoromethyl)pyridin-2-yl)phenyl)propyl)thieno[2,3-d]pyrimidin-4-amine] has a pIC50 of 7.85. Work on `Cc1cc2c(NCCCc3ccc(-c4ccc(OC(F)(F)F)cn4)cc3)nc(-c3ccon3)nc2s1` [Example 459, 2-(isoxazol-3-yl)-6-methyl-N-(3-(4-(5-(trifluoromethoxy)pyridin-2-yl)phenyl)propyl)thieno[2,3-d]pyrimidin-4-amine] yielded a pIC50 of 7.37. For `Cc1nc2c(NCCCc3ccc(-c4cnc(F)cn4)cc3)nc(-c3ccon3)nc2s1` [Example 465, N-(3-[4-(5-fluoropyrazin-2-yl)phenyl]propyl)-2-methyl-5-(1,2-oxazol-3-yl)-[1,3]thiazolo[5,4-d]pyrimidin-7-amine], the pIC50 was 6.74. Compound `FC(F)(F)Oc1ccc(-c2ccc(CCCNc3nc(Cl)nc4sccc34)cc2)cc1` [Example 467, 2-chloro-N-(3-(4′-(trifluoromethoxy)-[1,1′-biphenyl]-4-yl)propyl)thieno[2,3-d]pyrimidin-4-amine] has a pIC50 of 6.70. `FC(F)(F)Oc1ccc(-c2ccc(CCCNc3nc(Cl)nc4scnc34)cc2)cc1` [Example 468, 5-chloro-N-(3-(4′-(trifluoromethoxy)-[1,1′-biphenyl]-4-yl)propyl)thiazolo[5,4-d]pyrimidin-7-amine] was tested, and the pIC50 was 6.16. Compound `Cc1cc2c(NCCCc3ccc(-c4cnc(F)cn4)cc3)nc(Cl)nc2s1` [Example 469, 2-chloro-N-(3-(4-(5-fluoropyrazin-2-yl)phenyl)propyl)-6-methylthieno[2,3-d]pyrimidin-4-amine] has a pIC50 of 6.77.
